The results in this text go back to PMC12751141, “Disrupting α-Synuclein–ClpP interaction restores mitochondrial function and attenuates neuropathology in Parkinson’s disease models” (Molecular Neurodegeneration, 2025).

One data set relates to SH-SY5Y cells. Description: Cellular ATP in SH-SY5Y cells. Type of data set: cell-based. Here is the method:
Cells were seeded in 24-well plates, followed by the indicated treatment. The ATP level in each well was determined using the ATP assay kit according to the manufacturer’s procedures (Cayman Chemical, 700410).

The subject of data set [1] is αSyn-PFF-inoculated primary cortical neurons. Description: Immunofluorescence / western blot in αSyn-PFF-inoculated primary cortical neurons. Type of data set: cell-based, mouse. Particulars: 1 µM daily. Here is the method: Primary cortical neurons were isolated from normal E18 mouse cortex (sex undetermined) and cultured using complete culturing kit (cat#: KTC57ECX, TransnetYX Tissue). Briefly, 100,000 cells were seeded on poly-D-lysine coated glass coverslips (PDL15mm, TransnetYX Tissue) and cultured in NbActiv1 medium (NB1, TransnetYX Tissue). Neurons were treated with sonicated human α-Syn-PFF (SPR-322, StressMarq Biosciences) starting on post-seeding Day 5 till Day 14. Starting from post-seeding Day 9, TAT or CS2 peptide was added daily at 1µM. Neurons were fixed on Day 14 and subjected for experiments.
Cells were grown on coverslips, fixed with 4% paraformaldehyde for 20 min at room temperature, permeabilized with 0.1% Triton X-100 in PBS, and blocked with 2% normal goat serum. The cells were incubated with the indicated primary antibodies overnight at 4℃. After washing with PBS, the cells were incubated with Alexa Fluor 488/568 or 405/568 secondary antibody (1:500; Thermo Fisher Scientific) for 2 h at room temperature. The nuclei were counterstained with DAPI (1:10000; Sigma-Aldrich). Images of the staining were acquired using a Fluoview FV3000 confocal microscope (Olympus).
Fig. 5 CS2 treatment mitigates αSyn PFF induced neurotoxicity. (A) Representative images of ClpP, αSyn (Syn204; recognize human αSyn only) and NeuN staining in αSyn PFF-inoculated mouse primary cortical neurons that were pre-treated with TAT or CS2 peptide (scale bar = 30 μm). Quantification of ClpP and αSyn co-localization (n = 12–13 neurons/group, two-tailed Student’s t test, data are mean ± SEM). (B-C) Representative images of ClpP, αSyn (Syn204) and NeuN staining in αSyn PFF-inoculated mouse primary cortical neurons that were pre-treated with TAT or CS2 peptide (scale bar = 30 μm). Neurons were fixed in 4% PFA/4% sucrose/1%Triton-X100 to extract the soluble factions before immunostaining. […] (D-E) Representative images of β-tubulin (Tuj1) and pS129-αSyn (pS129) staining in αSyn PFF-inoculated mouse primary cortical neurons that were pre-treated with TAT or CS2 peptide (scale bar = 30 μm). […] (F-H) Representative images of PSD95, Synapsin1 (SYN1) and pS129 staining in αSyn PFF-inoculated mouse primary cortical neurons that were pre-treated with TAT or CS2 peptide (scale bar = 30 μm).
(A) Experimental schematic of TAT or CS2 peptide treatment in mouse primary cortical neurons inoculated with human αSyn PFF: Primary cortical neurons were isolated from E18 mouse cortex (see methods) and plated on coverslips (Day -5); neurons were treated with human αSyn PFF on Day 0 at 50 ng/ml; On Day 4, TAT or CS2 (1µM) was added daily till Day 9.
(B) Total protein lysates were harvested from primary neurons inoculated with αSyn-PFF after treatment with TAT or PBS, and subjected for western blot. Shown are the representative blots.
On the technique in general: In western blotting, separated proteins are transferred to a membrane and probed.

A further data set has as its system ClpP–αSyn interaction. Description: Co-immunoprecipitation of ClpP with αSyn constructs in HEK293T cell lysates. Type of data set: cell-based. Particulars: HEK293T lysates. As for the experimental part: Myc-tagged WT- and A53T- αSyn, Myc-tagged ClpP, and Flag-tagged WT- and S153A- ClpP plasmids were self-constructed as previously described (Ref). To construct truncated-αSyn plasmids, pcDNA3.1(-) was digested with BsteII and XbaI, and ΔN-, ΔC- and ΔNAC-αSyn was PCR-amplified using self-designed primers and inserted into the plasmid backbone. Cells were transfected with TransIT-2020 (Mirus Bio, LLC) following the manufacturer’s protocol.
Cells or tissues were lysed in total lysis buffer (50mM Tris-HCl, pH 7.5, 150mM NaCl, 1% Triton X-100, and protease inhibitor). Total protein lysates (800 µg) were incubated with the indicated antibodies overnight at 4 °C followed by the addition of protein A/G beads (sc-2003, Santa Cruz) for 2 h at 4 °C. Various recombinant αSyn and Clpp (500 ng) were incubated in in vitro interaction buffer (20mM Tris-HCl pH 7.5, 100mM KCl, 2mM MgCl2 and 0.1% Triton-X100) for 30 min at room temperature, and then incubated with indicated antibodies overnight at 4 °C followed by the addition of protein A/G beads for 2 h at 4 °C. The beads with immuno-precipitates were pulled down at 4000 g and washed four times with total lysis buffer/in vitro interaction buffer in the presence of 0.1% Triton X-100 and were analyzed by western blot analysis.
Shown are representative blots of 3 independent experiments. Quantification of the ratio of αSyn over ClpP (pull-down) (n = 4, two-tailed Student’s t test, data are mean ± SEM).

In the case of `CC(C)[C@H](NC(=O)CNC(=O)CNC(=O)CCCCCNC(=O)[C@H](CCCNC(=N)N)NC(=O)[C@H](CCCNC(=N)N)NC(=O)[C@H](CCCNC(=N)N)NC(=O)[C@H](CCC(N)=O)NC(=O)[C@H](CCCNC(=N)N)NC(=O)[C@H](CCCNC(=N)N)NC(=O)[C@H](CCCCN)NC(=O)[C@H](CCCCN)NC(=O)[C@H](CCCNC(=N)N)NC(=O)CNC(=O)[C@@H](N)Cc1ccc(O)cc1)C(=O)N[C@H](C(=O)N[C@H](C(=O)N[C@@H](C)C(=O)O)[C@@H](C)O)C(C)C` [CS2, TAT-C6-GGVVTA], the “ATP content, αSyn-expressing cells” value with SH-SY5Y cells (SH-SY5Y expressing WT- or A53T-αSyn, n = 6) is listed as “rescued upon CS2 treatment”. Further, the “ATP production, healthy cells” value in the data set with SH-SY5Y cells (healthy SH-SY5Y, n = 4) is given as “did not affect cell viability nor ATP production”. Further, in data set [1] (five days), the “ClpP expression, PFF neurons” value is “rescued the expression of ClpP”. In addition, in data set [1] (five days, n = 12–13 neurons/group), the “ClpP / αSyn co-localization” value is given as “reduced this colocalization”. Besides, in data set [1] (detergent-insoluble, n = 20-30 neurons per group), the “insoluble αSyn, PFF neurons” value was “significantly reduced the insoluble ClpP and αSyn signal”. In addition, the “insoluble ClpP” value in data set [1] (detergent-insoluble, n > 30 neurons/group) was “significantly reduced the insoluble ClpP and αSyn signal”. Moreover, in data set [1] (n = 3–6), the “pS129-αSyn level, PFF neurons” value is on record as “markedly reduced the level of pS129-αSyn”. Moreover, the Synapsin1/PSD95 colocalization result in data set [1] (n > 30 areas) was “substantially restored Synapsin1/PSD95 colocalization”. Besides, in the data set with ClpP–αSyn interaction (Flag-ClpP + Myc-ΔC-αSyn), the “ClpP binding to ΔC-αSyn” value was “abolished”. In addition, the “ClpP binding to ΔN-αSyn” value in the data set on ClpP–αSyn interaction (Flag-ClpP + Myc-ΔN-αSyn) is “abolished”. The “ClpP binding to WT-αSyn” value with ClpP–αSyn interaction (WT αSyn, CS2: 24-hour treatment) is “abolished”.
